From US20100273144A1, “NOVEL USE OF GRP 94 IN VIRUS INFECTION” (priority 2008, published 2010)

Tests used:
IκBα = assay: Time-course analysis of IκBα levels after TNF-α treatment, Western-blot, Huh-7 cells with or without HCV replicons; format: cell-based; settings: TNF-α 10 ng/ml
Protocol: (§1) Western-blot analysis—Proteins were resolved by 8% or 13.5% SDS-PAGE and transferred to nitrocellulose membranes (Amersham). The membranes were blocked overnight with 5% skimmed milk in Tris-buffered saline (TBS) [20 mM Tris-HCl (pH 7.5), 150 mM NaCl, 0.5% Tween-20] and then incubated with monoclonal antibodies against actin (1:5000), GRP94 (1:1000), Hsp90 (1:1000), TRAF2 (1:500), XIAP (1:1000), survivin (1:500), glyceraldehyde-3-phosphate dehydrogenase (GAPDH) (1:5000) and IKKα/β for 5 hours. A monoclonal anti-human actin antibody was used as a control. Horseradish-peroxidase-conjugated anti-mouse, anti-goat or anti-rabbit immunoglobulin Gs (IgGs) were used as secondary antibodies (1:5000), and bands were visualized by enhanced chemiluminescence (ECL) according to the manufacturer's instructions (Amersham).
The protein level of IκBα in control Huh-7 cells, Huh-7 cells containing replicons FK-E1 (UAA), and FK-E2(UAA) were measured by Western-blot assays with time; this is because the phosphorylation-dependent degradation of IκBs is an essential step for NF-κB activation after TNF-α treatment. […] Within 5 minutes of TNF-α treatment, IκBα proteins were not detected in the control Huh-7 cells (FIG. 1C). In Huh-7 cells containing the replicon FK-E1(UAA) that expresses NS3-5B, core and E1 proteins, the degradation of IκBα was delayed by up to 10 minutes after treatment with TNF-α (FIG. 1C).

NF-κB = NF-κB reporter assay (firefly luciferase under NF-κB response element) in 293T cells; format: cell-based; settings: 10 ng TNF-α for 12 hours, vs mock-treated
Protocol: (§2) Luciferase assay—Luciferase assays were performed using a luciferase assay kit (Promega), according to the manufacturer's instructions. The luciferase activities in the cells were normalized by the protein concentrations, as determined by the Bradford assay.
The activation of NF-κB by overproduction of GRP94 was investigated by measuring the activity of a reporter gene (firefly luciferase) under the control of the […] response element (FIG. 4A). […] 293T cells were transfected with pNF-κB-Luc, which encodes the firefly luciferase gene under the control of a NF-κB response element, with control vector plasmid (pCDNA3.1) (lane 3) or with the plasmid pCDNA3.1-GRP94, which produces. GRP94 (lane 4). Control plasmid pRLCMV-Luc (Promega) was also cotransfected to normalize transfection efficiency. After incubation of the cells for 48 hours, cells were further incubated in serum-free medium for 6 hours, mock-treated (lane 1), or treated with 10 ng TNF-α for 12 hours (lane 2), before luciferase activities were measured. Three independent experiments were performed and the relative values (TNF-α-treated vs mock-treated, and GRP94-overexpressed vs mock-expressed) are shown.

IKKα/β = target: T1, IKKα/β (Homo sapiens, UniProt O14920+O15111); assay: Effect of BAY11-7082 on expression of NF-κB-related survival genes, Western-blot, control and GRP94-overexpressing cells; format: cell-based; parameters: dose or concentration left out as unconfirmed
T1 construct: were monitored using GRP94-overexpressing and control cell lines; endogenous in cells; host or cells: Huh-7 cells stably carrying pCDNA3.1 (control) or pCDNA3.1-GRP94
Protocol: as §1, with “Horseradish-peroxidase-conjugated anti-mouse, anti-goat or anti-rabbit immunoglobulin Gs (IgGs) were used as secondary antibodies (1:5000), and bands were visualized by enhanced chemiluminescence (ECL) according to the manufacturer's instructions (Amersham).” left out
The inventors tried to determine the stage of the signaling cascade at which NF-κB is activated by GRP94. […] The effects of BAY11-7082, a specific inhibitor of IKKα/β, on the expression of NF-κB-related gene products were monitored using GRP94-overexpressing and control cell lines, and the obtained results are shown in FIG. 4B. […] Effect of abrogation of IKKα/β activity by BAY11-7082 on the expression of NF-κB-related survival genes was monitored by Western-blot analysis; lanes 2 and 4 show results with and lanes 1 and 3 show results without treatment of the drug […] for 4 hrs on control (lanes 1 and 2) and GRP94-overexpressing (lanes 3 and 4) cells.

HCV strain JFH 5a-Rluc = assay: HCV infectivity assessed by luciferase activity of JFH 5a-Rluc in Huh-7 cells; format: cell-based, hepatitis C virus; settings: siRNA 48 hours before infection, TRAIL 18 hours after 24 hours infection
Protocol: as §2
To confirm that the anti-apoptotic activity of E2 is induced by GRP94 and NF-κB-related gene products in HCV-infected cells, the levels of GRP94, XIAP, TRAF2, FLIP and Bcl-xL were monitored using a HCV-infection system. The infectious JFH1 strain of HCV (Wakita T, Pietschmann T, Kato T, Date T, Miyamoto M, Zhao Z, Murthy K, et al. Production of infectious hepatitis C virus in tissue culture from a cloned viral genome. Nat Med 2005; 11:791-796) and a JFH1 derivative known as JFH5a-Rluc with a reporter gene (Renilla luciferase) in the NS5A of HCV (FIG. 6A) that is suitable for quantification of HCV infection (Kim C S, Jung J H, Wakita T, Yoon S K, Jang S K. Monitoring the Antiviral Effect of Alpha Interferon on Individual Cells. J. Virol. 2007; 81:8814-8820) were used. […]
Huh-7 cells were transfected with a control siRNA (lanes 1, 2, 5 and 6) and a siRNA against GRP94 (lanes 3, 4, 7 and 8) and incubated for 48 hours. […] The levels of PARP, GRP94 and actin were monitored by Western-blot analysis. The HCV infectivity levels were assessed by measuring luciferase activities. […]

[1] = system: control, GRP94-overexpressing and E2-expressing cells; assay: TRAIL-induced apoptosis monitored by cleavage of PARP (Western-blot) in control, GRP94-overexpressing and E2-expressing cells; format: cell-based; settings: 200 ng/ml TRAIL for 2 hours
Description: The role of GRP94 in inhibition of apoptosis during HCV infection was investigated using a siRNA against GRP94 and a control siRNA, the GRP94-overexpressing, and the E2-expressing cell lines (FIG. 5). The strong apoptosis inducer TRAIL was used to mimic the physiological conditions of a virus infection that induces TRAIL expression. Cleavage of PARP, which is a substrate of activated caspase-3/7, was used to monitor the process of apoptosis. The obtained results were shown in FIG. 5, wherein control (lanes 1-4), GRP94-overexpressing (lanes 5-8), and E2-expressing (lanes 9-12) cells were mock-treated (lanes 1, 3, 5, 7, 9 and 11) or treated with 200 ng/ml TRAIL (lanes 2, 4, 6, 8, 10 and 12) for 2 hours after treatment with a control siRNA (lanes 3, 4, 7, 8, 11 and 12) or a siRNA against GRP94 (lanes 1, 2, 5, 6, 9 and 10). The levels of uncleaved PARP, GRP94, HCV E2 and actin were monitored by Western-blot analysis.

HCV-infected Huh-7 cells = assay: TRAIL-induced PARP cleavage in mock-infected and HCV (JFH 5a-Rluc)-infected Huh-7 cells; format: cell-based; settings: TRAIL for 18 hours
Protocol: Huh-7 cells were transfected with a control siRNA (lanes 1, 2, 5 and 6) and a siRNA against GRP94 (lanes 3, 4, 7 and 8) and incubated for 48 hours. The siRNA-treated cells were mock-infected (lanes 1-4) or infected with HCV (JFH 5a-Rluc) (lanes 5-8) and incubated for 24 hours. After infection, the cells were mock-treated (lanes 1, 3, 5 and 7) or treated with TRAIL (lanes 2, 4, 6 and 8) for 18 hours. These cells were used to monitor protein levels (upper panel) and virus infection (lower panel). The levels of PARP, GRP94 and actin were monitored by Western-blot analysis. The HCV infectivity levels were assessed by measuring luciferase activities. Experiments were performed six times with triplicate samples each, and mean and standard deviation values of the experiments are shown as columns and lines, respectively.

T1 sequence (O15111 whole entry): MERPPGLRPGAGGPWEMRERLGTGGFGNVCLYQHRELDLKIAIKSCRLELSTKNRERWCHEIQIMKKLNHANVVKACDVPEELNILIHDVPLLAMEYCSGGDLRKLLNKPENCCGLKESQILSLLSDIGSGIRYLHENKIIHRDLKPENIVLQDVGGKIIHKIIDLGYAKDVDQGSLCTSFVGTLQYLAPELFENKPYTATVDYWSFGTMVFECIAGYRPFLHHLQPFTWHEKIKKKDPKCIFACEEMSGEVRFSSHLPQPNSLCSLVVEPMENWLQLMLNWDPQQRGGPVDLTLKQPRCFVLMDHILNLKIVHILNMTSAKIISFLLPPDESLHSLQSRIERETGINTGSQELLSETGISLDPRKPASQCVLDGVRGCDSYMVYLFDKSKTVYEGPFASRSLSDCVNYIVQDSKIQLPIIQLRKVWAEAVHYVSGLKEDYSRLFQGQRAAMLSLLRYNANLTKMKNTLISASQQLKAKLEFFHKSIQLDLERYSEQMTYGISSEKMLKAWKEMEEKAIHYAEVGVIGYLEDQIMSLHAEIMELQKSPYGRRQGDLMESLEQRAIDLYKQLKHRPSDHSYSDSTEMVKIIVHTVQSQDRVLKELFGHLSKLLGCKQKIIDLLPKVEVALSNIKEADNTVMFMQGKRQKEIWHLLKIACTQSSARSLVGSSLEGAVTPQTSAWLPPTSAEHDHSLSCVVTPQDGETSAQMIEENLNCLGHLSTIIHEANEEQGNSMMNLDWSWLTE
T1 sequence (O14920 whole entry): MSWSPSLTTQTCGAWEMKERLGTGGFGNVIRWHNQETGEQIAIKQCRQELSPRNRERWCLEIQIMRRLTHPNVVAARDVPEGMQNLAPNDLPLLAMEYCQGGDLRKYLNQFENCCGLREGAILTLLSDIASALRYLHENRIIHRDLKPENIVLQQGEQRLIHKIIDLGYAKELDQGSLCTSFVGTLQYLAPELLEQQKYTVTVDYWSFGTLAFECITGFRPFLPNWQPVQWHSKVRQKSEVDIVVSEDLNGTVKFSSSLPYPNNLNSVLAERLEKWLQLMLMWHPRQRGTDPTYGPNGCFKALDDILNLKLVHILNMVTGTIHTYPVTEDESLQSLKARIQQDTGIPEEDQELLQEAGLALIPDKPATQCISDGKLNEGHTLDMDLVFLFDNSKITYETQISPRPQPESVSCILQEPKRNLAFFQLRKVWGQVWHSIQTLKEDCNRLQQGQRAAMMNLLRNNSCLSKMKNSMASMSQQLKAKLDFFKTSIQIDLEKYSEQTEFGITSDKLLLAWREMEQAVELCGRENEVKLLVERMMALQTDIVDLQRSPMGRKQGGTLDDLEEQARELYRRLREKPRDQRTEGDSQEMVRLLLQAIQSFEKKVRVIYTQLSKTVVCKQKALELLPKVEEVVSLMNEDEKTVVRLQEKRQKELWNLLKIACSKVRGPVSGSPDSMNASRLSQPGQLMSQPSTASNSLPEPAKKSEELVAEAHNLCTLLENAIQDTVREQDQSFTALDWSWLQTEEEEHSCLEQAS
T1 sequence (Q9Y6K9 whole entry partner): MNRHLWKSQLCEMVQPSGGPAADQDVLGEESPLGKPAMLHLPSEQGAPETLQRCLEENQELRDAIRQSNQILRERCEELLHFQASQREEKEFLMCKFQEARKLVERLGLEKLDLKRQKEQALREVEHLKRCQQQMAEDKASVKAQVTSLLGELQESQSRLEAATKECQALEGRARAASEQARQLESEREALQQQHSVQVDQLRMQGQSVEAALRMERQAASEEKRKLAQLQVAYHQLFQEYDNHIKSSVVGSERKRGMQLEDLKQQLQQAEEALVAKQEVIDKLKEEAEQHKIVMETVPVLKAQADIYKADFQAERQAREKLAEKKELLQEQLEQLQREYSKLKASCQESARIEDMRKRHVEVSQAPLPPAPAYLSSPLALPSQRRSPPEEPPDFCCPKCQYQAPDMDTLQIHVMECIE

**Q.** With tumor necrosis factor (TNF)-α [TNF-α] as the molecule, how does the “time after TNF-α treatment at which residual IκBα proteins were not detected” value (IκBα; FK-E2(UAA)-containing Huh-7 cells) read?
**A.** ≤ 5 min

**Q.** What about the “delay of degradation of IκBα after treatment with TNF-α” value (IκBα; Huh-7 cells containing replicon FK-E1(UAA)) of the same molecule?
**A.** up to 10 minutes

**Q.** And the “time after TNF-α treatment at which IκBα proteins were not detected” value (IκBα; control Huh-7 cells)?
**A.** ≤ 5 min

**Q.** What about the “increase in NF-κB reporter activity” value (NF-κB) of the same molecule?
**A.** about 10 fold

**Q.** For `Cc1ccc(S(=O)(=O)/C=C/C#N)cc1` [BAY11-7082], which “levels of GRP94 protein” value (IKKα/β) is on record?
**A.** reduced

**Q.** And the “levels of XIAP, TRAF2, survivin, and IKKα/β” value (IKKα/β; GRP94-expressing and control cells)?
**A.** markedly reduced

B1: tumor necrosis-related apoptosis-inducing ligand (protein, UniProt P50591 1-281, looked up)
Tumor necrosis factor ligand …: MAMMEVQGGPSLGQTCVLIVIFTVLLQSLCVAVTYVYFTNELKQMQDKYSKSGIACFLKEDDSYWDPNDEESMNSPCWQVKWQLRQLVRKMILRTSEETISTVQEKQQNISPLVRERGPQRVAAHITGTRGRSNTLSSPNSKNEKALGRKINSWESSRSGHSFLSNLHLRNGELVIHEKGFYYIYSQTYFRFQEEIKENTKNDKQMVQYIYKYTSYPDPILLMKSARNSCWSKDAEYGLYSIYQGGIFELKENDRIFVSVTNEHLIDMDHEASFFGAFLVG
**Q.** Which results are given for B1?
**A.** reduction of infectivity of HCV (HCV strain JFH 5a-Rluc): about 20%; cleavage of PARP ([1]; GRP94-overexpressing and HCV-E2-expressing cells): blocked; cleavage of PARP ([1]; control cells, with control siRNA or GRP94 siRNA): observed; levels of PARP cleavage (HCV-infected Huh-7 cells; HCV-infected Huh-7 cells): almost no reductions; cleavage of PARP (HCV-infected Huh-7 cells; mock-infected Huh-7 cells): observed
